Experimental data from US20210276978A1, “INHIBITORS OF HISTONE DEACETYLASE” (Alkermes, Inc., priority 2018, published 2021).

Tests used:
HDAC2 = target: T1, HDAC2 (Homo sapiens, UniProt Q92769); experiment: HDAC2 enzymatic inhibition assay in SH-SY5Y cell lysate with an exogenous substrate (HDAC-Glo 2); type: cell-based; conditions: for IC50: SH-SY5Y cells
T1 construct: host or cells: SH-SY5Y cells
Method: HDAC2 Enzymatic Inhibition Assay in SH-SY5Y Cell Lysate with an Exogenous Substrate
SH-SY5Y cells (Sigma) were cultured in Eagle's Modified Essential Medium supplemented with 10% fetal bovine serum and pen/strep. Twenty-four hours prior to compound dosing 20 uL of cells were plated in white 384 well plates at a density of 1,500 cells/well. Compounds were serially diluted in neat DMSO and then diluted 1:100 v/v into media without FBS and mixed. Media was removed from the plated cells and the diluted compounds in serum free media (1% v/v final DMSO) were added and incubated at 37.0 for five hours. Ten uL of HDAC-Glo 2 reagent with 0.1% Triton X-100 was then added, the plate was mixed and allowed to develop at room temperature for 100 minutes. Plates were then read with a Spectramax LMax luminometer employing a 0.4 s integration time. Dose response curves were constructed with normalized data where CI-994 at 100 uM was defined as 100% inhibition and DMSO alone as 0% inhibition.
In the table, “A” indicates a IC50 value of less than 0.5 μM; “B” a IC50 value from 0.5 μM to 1.0 μM; “C” a IC50 value of greater than 1.0 μM and less than or equal to 2.0 μM; and “D” indicates an IC50 value of greater than 2.0 μM. NT=Not Tested.

Full length Human HDAC1 = target: T2, Full length Human HDAC1 (Homo sapiens, UniProt Q13547); experiment: HDAC1 enzymatic assay (deacetylation of FAM-labeled peptide substrate, microfluidic electrophoresis); type: biochemical; conditions: 1 uM substrate peptide
T2 construct: Full length Human HDAC1 with; His (C); FLAG (C); host or cells: baculovirus expression system
T2 sequence (Q13547 whole entry): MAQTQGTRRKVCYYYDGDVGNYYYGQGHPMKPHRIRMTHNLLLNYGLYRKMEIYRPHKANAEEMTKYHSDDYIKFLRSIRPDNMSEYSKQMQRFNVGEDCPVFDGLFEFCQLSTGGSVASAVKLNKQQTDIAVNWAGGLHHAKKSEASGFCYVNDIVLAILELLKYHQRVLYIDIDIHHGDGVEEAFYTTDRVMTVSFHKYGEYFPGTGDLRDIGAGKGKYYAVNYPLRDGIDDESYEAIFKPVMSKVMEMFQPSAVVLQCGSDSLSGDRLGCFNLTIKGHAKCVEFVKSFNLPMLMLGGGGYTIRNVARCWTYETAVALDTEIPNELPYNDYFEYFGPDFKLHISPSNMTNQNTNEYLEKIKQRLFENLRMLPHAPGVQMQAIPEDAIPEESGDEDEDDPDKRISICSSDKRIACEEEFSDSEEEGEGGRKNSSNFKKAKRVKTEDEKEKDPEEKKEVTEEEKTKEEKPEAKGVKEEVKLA
Method: (§1) HDAC2 and HDAC1 Enzymatic Assay (HDAC2 and HDAC1 IC50 Data)
(§2) The following describes an assay protocol for measuring the deacetylation of a peptide substrate by HDAC2 or HDAC1.
(§3) HDAC protein composition and respective substrate peptides are summarized below.
(§4) HDAC reactions are assembled in 384 well plates (Greiner) in a total volume of 20 µL as following:
(§5) HDAC proteins are pre-diluted in the assay buffer comprising: 100 mM HEPES, pH 7.5, 0.1% BSA, 0.01% Triton X-100, 25 mM KCl and dispensed into 384 well plate (10 uL per well).
(§6) Test compounds are serially pre-diluted in DMSO and added to the protein samples by acoustic dispensing (Labcyte Echo). Concentration of DMSO is equalized to 1% in all samples.
(§7) Control samples (0%-inhibition in the absence of inhibitor, DMSO only) and 100%-inhibition (in the absence of enzyme) are assembled in replicates of four and used to calculate the %-inhibition in the presence of compounds.
(§8) At this step compounds can be pre-incubated with enzyme if desired.
(§9) The reactions are initiated by addition of 10 uL of the FAM-labeled substrate peptide pre-diluted in the same assay buffer. Final concentration of substrate peptide is 1 uM (HDAC1-2). The reactions are allowed to proceed at room temperature. Following incubation, the reactions are quenched by addition of 50 µL of termination buffer (100 mM HEPES, pH7.5, 0.01% Triton X-100, 0.1% SDS). Terminated plates are analyzed on a microfluidic electrophoresis instrument (Caliper LabChip® 3000, Caliper Life Sciences/Perkin Elmer) which enables electrophoretic separation of de-acetylated product from acetylated substrate. A change in the relative intensity of the peptide substrate and product is the parameter measured. Activity in each test sample is determined as the product to sum ratio (PSR): P/(S+P), where P is the peak height of the product, and S is the peak height of the substrate. Percent inhibition (Pinh) is determined using the following equation: Pinh=(PSR0% inh−PSRcompound)/(PSR0% inh−PSR100% inh)*100, in which: PSRcompound is the product/sum ratio in the presence of compound, PSR0% inh is the product/sum ratio in the absence of compound and the PSR100% inh is the product/sum ratio in the absence of the enzyme. To determine IC50 of compounds (50%-inhibition) the %-inh data (Pinh versus compound concentration) are fit by a 4 parameter sigmoid dose-response model using XLfit software (IDBS).
(§10) In the table, “A” indicates a IC50 value of less than 0.5 “B” a IC50 value from 0.5 μM to 1.0 μM; “C” a IC50 value of greater than 1.0 μM and less than or equal to 2.0 μM; and “D” indicates an IC50 value of greater than 2.0 NT=Not Tested.

Full length Human HDAC2 = target: T3, Full length Human HDAC2 (Homo sapiens, UniProt Q92769); experiment: HDAC2 enzymatic assay (deacetylation of FAM-labeled peptide substrate, microfluidic electrophoresis); type: biochemical; conditions: 1 uM substrate peptide
T3 construct: Full length Human HDAC2 with; FLAG (C); host or cells: baculovirus expression system
T3 sequence (Q92769 whole entry): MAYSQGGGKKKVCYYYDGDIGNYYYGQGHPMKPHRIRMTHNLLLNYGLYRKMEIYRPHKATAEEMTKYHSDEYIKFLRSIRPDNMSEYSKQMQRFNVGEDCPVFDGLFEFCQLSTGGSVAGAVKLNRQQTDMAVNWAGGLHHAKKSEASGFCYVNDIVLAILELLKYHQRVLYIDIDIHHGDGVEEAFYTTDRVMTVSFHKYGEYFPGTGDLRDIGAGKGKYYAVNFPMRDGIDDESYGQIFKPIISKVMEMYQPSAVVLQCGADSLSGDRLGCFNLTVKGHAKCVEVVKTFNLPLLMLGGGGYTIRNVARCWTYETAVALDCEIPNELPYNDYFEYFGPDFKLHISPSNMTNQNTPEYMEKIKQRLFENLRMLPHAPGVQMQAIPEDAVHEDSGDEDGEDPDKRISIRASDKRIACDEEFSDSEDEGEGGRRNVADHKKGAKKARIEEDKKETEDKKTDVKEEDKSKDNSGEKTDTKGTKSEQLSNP
Method: as §1, §2, §3, §4, §5, §6, §7, §8, §9, §10

[1] = five hours incubation, HDAC-Glo 2 reagent, class symbols
[2] = HDAC-Glo 2, numeric values, Table 4
[3] = HDAC2 SH-SY5Y cell lysate assay

T1 sequence (Q92769 whole entry): as above

Row | SMILES | IC50 (HDAC2; [1]) | IC50 (Full length Human HDAC1) | IC50 (Full length Human HDAC2) | IC50 (HDAC2; [2]) | potency compared with Comparators A-C (HDAC2; [3]) | fold more potent than Comparator A (HDAC2; [3])
1 | Nc1ccc(-c2ccc(F)cc2F)nc1NC(=O)N1CCC(c2ccccn2)C1 (stereo not drawn) [Compound 1] | > 2 µM | 0.5 to 1 µM | 1 to 2 µM |  |  | 
2 | Nc1ccc(-c2ccc(F)cc2F)nc1NC(=O)N1CCC(c2cccnc2)C1 (stereo not drawn) [Compound 2] | > 2 µM | 1 to 2 µM | > 2 µM |  |  | 
3 | Nc1ccc(-c2ccc(F)cc2F)nc1NC(=O)N1CCC(c2ccncc2)C1 (stereo not drawn) [Compound 3] | > 2 µM | > 2 µM | > 2 µM |  |  | 
4 | Nc1ccc(-c2ccc(F)cc2F)nc1NC(=O)N1CCC(c2ccccc2)C1 (stereo not drawn) [Compound 4] | > 2 µM | 0.5 to 1 µM | 1 to 2 µM |  |  | 
5 | Nc1ccc(-c2ccc(F)cc2F)nc1NC(=O)N1CCC(c2cccnn2)C1 (stereo not drawn) [Compound 9] | 1 to 2 µM | 0.5 to 1 µM | 1 to 2 µM |  |  | 
6 | Cc1ccnc(C2CCN(C(=O)Nc3nc(-c4ccc(F)cc4F)ccc3N)C2)n1 (stereo not drawn) [Compound 10] | 1 to 2 µM | < 0.5 µM | 0.5 to 1 µM |  |  | 
7 | Nc1ccc(-c2ccc(F)cc2F)nc1NC(=O)N1CCC(c2ncc(F)cn2)C1 (stereo not drawn) [Compound 14] | 1 to 2 µM | 0.5 to 1 µM | 0.5 to 1 µM |  |  | 
8 | Cc1cnc(C2CCN(C(=O)Nc3nc(-c4ccc(F)cc4F)ccc3N)C2)cn1 (stereo not drawn) [Compound 18] | 0.5 to 1 µM | 0.5 to 1 µM | 0.5 to 1 µM | 0.55 µM |  | 
9 | Nc1ccc(-c2ccc(F)cc2)nc1NC(=O)N1CCC(c2ncccn2)C1 (stereo not drawn) [Compound 19] | < 0.5 µM | < 0.5 µM | < 0.5 µM | 0.421 µM | greater potency | 
10 | Nc1ccc(-c2ccc(F)cc2)nc1NC(=O)N1CCC(c2ncc(F)cn2)C1 (stereo not drawn) [Compound 20] | 1 to 2 µM | < 0.5 µM | 0.5 to 1 µM | 1.13 µM | greater potency | > 2 fold
11 | Nc1ccc(-c2ccccc2F)nc1NC(=O)N1CCC(c2ncc(F)cn2)C1 (stereo not drawn) [Compound 21] | 1 to 2 µM | 0.5 to 1 µM | 1 to 2 µM |  |  | 
12 | Nc1ccc(-c2ccc(F)cc2F)nc1NC(=O)N1CCC(Oc2ncccn2)C1 (stereo not drawn) [Compound 23] | > 2 µM | > 2 µM | > 2 µM |  |  | 

Continued, values first:

Row | IC50 (HDAC2; [1]) | IC50 (Full length Human HDAC1) | IC50 (Full length Human HDAC2) | IC50 (HDAC2; [2]) | potency compared with Comparators A-C (HDAC2; [3]) | fold more potent than Comparator A (HDAC2; [3]) | SMILES
13 | 0.5 to 1 µM | < 0.5 µM | 0.5 to 1 µM |  |  |  | Nc1ccc(-c2ccc(F)cc2)nc1NC(=O)N1CCC(F)(c2ncc(F)cn2)C1 (single isomer, unassigned) [Compound 53]
14 | 1 to 2 µM | 0.5 to 1 µM | 0.5 to 1 µM |  |  |  | Nc1ccc(-c2ccc(F)cc2)nc1NC(=O)N1CCC(F)(c2ncccn2)C1 (single isomer, unassigned) [Compound 54]
15 | 0.5 to 1 µM | < 0.5 µM | < 0.5 µM |  |  |  | Nc1ccc(-c2ccc(F)cc2)nc1NC(=O)N1CCC(F)(c2ncccn2)C1 (single isomer, unassigned) [Compound 55]
16 | 1 to 2 µM | 1 to 2 µM | 1 to 2 µM | 1.42 µM |  |  | Nc1ccc(-c2ccc(F)cc2F)nc1NC(=O)N1CCC(Cc2ncccn2)C1 (stereo not drawn) [Compound 24]
17 | 0.5 to 1 µM | 1 to 2 µM | 1 to 2 µM | 0.535 µM |  |  | Nc1ccc(-c2ccc(F)cc2F)nc1NC(=O)N1CCC(Cc2cccnn2)C1 (stereo not drawn) [Compound 26]
18 | 0.5 to 1 µM | < 0.5 µM | 0.5 to 1 µM | 0.768 µM |  |  | Nc1ccc(-c2ccc(F)cc2F)nc1NC(=O)N1CCC(F)(c2ncccn2)C1 (stereo not drawn) [Compound 29]
19 | 0.5 to 1 µM | < 0.5 µM | 0.5 to 1 µM |  |  |  | Cn1ccnc1CC1CCN(C(=O)Nc2nc(-c3ccc(F)cc3F)ccc2N)C1 (stereo not drawn) [Compound 36]
20 | 0.5 to 1 µM | < 0.5 µM | 0.5 to 1 µM |  |  |  | Nc1ccc(-c2cccs2)nc1NC(=O)N1CCC(c2ncccn2)C1 (stereo not drawn) [Compound 41]
21 | 0.5 to 1 µM | 0.5 to 1 µM | 1 to 2 µM |  |  |  | Nc1ccc(-c2ccc(F)s2)nc1NC(=O)N1CCC(F)(c2ncccn2)C1 (stereo not drawn) [Compound 45]
22 | > 2 µM | 0.5 to 1 µM | 1 to 2 µM |  |  |  | Cc1cnc(C2CCN(C(=O)Nc3nc(-c4ccc(F)cc4)ccc3N)C2)o1 (stereo not drawn) [Compound 46]
23 | 1 to 2 µM | 0.5 to 1 µM | 1 to 2 µM |  |  |  | Nc1ccc(-c2ccccc2F)nc1NC(=O)N1CCC(c2ncccn2)C1 (stereo not drawn) [Compound 48]
24 | 1 to 2 µM | < 0.5 µM | 1 to 2 µM |  |  |  | Nc1ccc(-c2cccs2)nc1NC(=O)N1CCC(c2ncc(F)cn2)C1 (stereo not drawn) [Compound 49]
